We go through 1 molecule from patent US7135494B2, “Antitumoral carbazoles” (Pharma Mar, S.A., priority 2000, dated 2006).

The term GI50 denotes the concentration at which growth is held to half of that of the control.

Where two headings read alike, the source gives them in different places.

What all share (format): cell-based
One experiment has as its system Lung (A-549). As to the kind of experiment: SRB colorimetric assay of cell growth and viability, A-549. How it is done:
(§1) Biological tests were carried out on coproverdine (the compound of Example 1 of the present application). A colorimetric type of assay, using sulforhodamine B (SRB) reaction, was used to provide a quantitative measurement of cell growth and viability. The technique described by Skehan, et al., J Natl. Cancer Inst., 1990, 82, 1107, was followed. The reader is also referred to the following references: • Faircloth et al. Journal of Tissue and Culture Methods, 1988, 11, 201. • Monks et al. Articles, 1991, 83, 757. • Mosmann et al. Journal of Immunological Methods, 1983, 65, 55.
(§2) Further biological tests were carried out on coproverdine using similar methods. The results are given using the following cellular response parameters: GI=growth inhibition, TGI=total growth inhibition (cytostatic effect) and LC=cell killing (cytotoxic effect).
Background: In SRB staining, fixed cells bind dye roughly in proportion to their protein.

Another experiment has as its system Melanoma (MEL-28). Kind of experiment: SRB colorimetric assay of cell growth and viability, MEL-28. The conditions noted are these: Homo sapiens, SK-MEL-28, 24 wells/16 mm, 10,000 cells/72 h, read-out: IC50 (concentration that causes 50% growth inhibition). On the procedure:
as §1, §2

A further experiment has as its system Prostate (DU-145). Kind of experiment: SRB colorimetric assay of cell growth and viability, DU-145. The conditions noted are these: Homo sapiens, 24 wells/16 mm, 10,000 cells/72 h, read-out: IC50 (concentration that causes 50% growth inhibition). On the procedure:
as §1, §2

The subject of a further experiment is P388 leukemia cell line. As to the kind of experiment: SRB colorimetric assay of cell growth and viability, P388. The settings on record: Mus musculus. How it is done:
as §1, §2

The next experiment has as its system Colon (HT-29). As to the kind of experiment: SRB colorimetric assay of cell growth and viability, HT-29. On the procedure:
as §1, §2

The mark [1] stands for this setting: 96 wells/9 mm, 5,000 cells/48 h.

With `COC(=O)c1cccc2c3c(n(O)c12)C(O)(C=O)C=CC3=O` (stereo not drawn) [coproverdine, 8-formyl-8,9-dihydroxy-5-oxo-8,9-dihydro-5H-carbazole-1-carboxylic acid methyl ester], the figures for the “TGI (total growth inhibition, cytostatic effect)” value in the experiment with Lung (A-549) (setting [1]) and in the experiment on Colon (HT-29) (setting [1]) were 15 µM and 16 µM, respectively. For the same molecule, the IC50 in the experiment with Lung (A-549) (Homo sapiens, A549, 24 wells/16 mm, 10,000 cells/72 h, read-out: IC50 (concentration that causes 50% growth inhibition)) turned out to be 0.3 µM; in the experiment on Melanoma (MEL-28), 0.3 µM; in the experiment on Prostate (DU-145) it was 0.3 µM; with P388 leukemia cell line (P388, Leukemia (P-388), 24 wells/16 mm, 10,000 cells/72 h, read-out: IC50 (concentration that causes 50% growth inhibition)), 1.6 µM; in the experiment on P388 leukemia cell line (P388 leukemia cell line, first test, read-out: IC50), 0.95 µg/mL; in the experiment with Colon (HT-29) (Homo sapiens, 24 wells/16 mm, 10,000 cells/72 h, read-out: IC50 (concentration that causes 50% growth inhibition)), 0.3 µM. For the same molecule, the GI50 in the experiment with Lung (A-549) (Homo sapiens, A549, 96 wells/9 mm, 5,000 cells/48 h, read-out: GI50 (50% growth inhibition with correction for cell OD at time zero)) was 7 µM; in the experiment with Colon (HT-29) (Homo sapiens, 96 wells/9 mm, 5,000 cells/48 h, read-out: GI50 (50% growth inhibition with correction for cell OD at time zero)), 6 µM. Moreover, the CC50 was 50 µM with Lung (A-549) (Homo sapiens, A549, 96 wells/9 mm, 5,000 cells/48 h, read-out: LC50 (50% cell killing, cytotoxic effect)) and 50 µM in the experiment on Colon (HT-29) (Homo sapiens, 96 wells/9 mm, 5,000 cells/48 h, read-out: LC50 (50% cell killing, cytotoxic effect)).
